According to patent US12319640B2, “Cyclic diones as herbicidal compounds” (SYNGENTA CROP PROTECTION AG, priority 2019, dated 2025):

Assays:
Assay in all cases: Glasshouse herbicide test, pre- and post-emergence
Assay type in all cases: in vivo
Lolium perenne (LOLPE) = settings: 250 g/h, evaluated after 13 days, five-point scale; for percentage damage caused to the plant, LOLPE POST: post-emergence; for percentage damage caused to the plant, LOLPE PRE: pre-emergence
Experimental: (§1) Seeds of a variety of test species are sown in standard soil in pots (Lolium perenne (LOLPE), Setaria faberi (SETFA), Alopecurus myosuroides (ALOMY), Echinochloa crus-galli (ECHCG), Avena fatua (AVEFA)). After cultivation for one day (pre-emergence) or after 8 days cultivation (post-emergence) under controlled conditions in a glasshouse (at 24/16° C., day/night; 14 hours light; 65% humidity), the plants are sprayed with an aqueous spray solution derived from the formulation of the technical active ingredient in acetone/water (50:50) solution containing 0.5% Tween 20 (polyoxyethelyene sorbitan monolaurate, CAS RN 9005-64-5). Compounds are applied at 250 g/h. The test plants are then grown in a glasshouse under controlled conditions in a glasshouse (at 24/16° C., day/night; 14 hours light; 65% humidity) and watered twice daily. After 13 days for pre and post-emergence, the test is evaluated for the percentage damage caused to the plant. The biological activities are shown in the following table on a five-point scale (5=80-100%; 4=60-79%; 3=40-59%; 2=20-39%; 1=0-19%).

Avena fatua (AVEFA) = settings: 250 g/h, evaluated after 13 days, five-point scale; for percentage damage caused to the plant, AVEFA POST: post-emergence; for percentage damage caused to the plant, AVEFA PRE: pre-emergence
Experimental: as §1

Setaria faberi (SETFA) = settings: 250 g/h, evaluated after 13 days, five-point scale; for percentage damage caused to the plant, SETFA POST: post-emergence; for percentage damage caused to the plant, SETFA PRE: pre-emergence
Experimental: as §1

[1] = system: Echinochloa crus-galli (ECHCG); settings: 250 g/h, evaluated after 13 days, five-point scale; for percentage damage caused to the plant, ECHCG POST: post-emergence; for percentage damage caused to the plant, ECHCG PRE: pre-emergence
Experimental: as §1

[2] = system: Alopecurus myosuroides (ALOMY); settings: 250 g/h, evaluated after 13 days, five-point scale; for percentage damage caused to the plant, ALOMY POST: post-emergence; for percentage damage caused to the plant, ALOMY PRE: pre-emergence
Experimental: as §1

| Compound | percentage damage caused to the plant, LOLPE POST (Lolium perenne (LOLPE)) | percentage damage caused to the plant, LOLPE PRE (Lolium perenne (LOLPE)) | percentage damage caused to the plant, AVEFA POST (Avena fatua (AVEFA)) | percentage damage caused to the plant, AVEFA PRE (Avena fatua (AVEFA)) | percentage damage caused to the plant, SETFA POST (Setaria faberi (SETFA)) | percentage damage caused to the plant, SETFA PRE (Setaria faberi (SETFA)) | percentage damage caused to the plant, ECHCG POST [1] | percentage damage caused to the plant, ECHCG PRE [1] | percentage damage caused to the plant, ALOMY POST [2] | percentage damage caused to the plant, ALOMY PRE [2] |
| --- | --- | --- | --- | --- | --- | --- | --- | --- | --- | --- |
| CNC(=O)C1CCC2(CC1)CC(=O)C(c1c(C)cc(-c3ccc(F)cn3)cc1C)C(=O)C2 (stereo not shown) [Compound 1.024] | 5 (5=80-100%) | 5 (5=80-100%) | 5 (5=80-100%) | 5 (5=80-100%) | 5 (5=80-100%) | 5 (5=80-100%) | 5 (5=80-100%) | 5 (5=80-100%) | 5 (5=80-100%) | 5 (5=80-100%) |
| CNC(=O)C1CCC2(CC1)CC(=O)C(c1c(C)cc(-c3ccc(F)cc3)cc1C)C(=O)C2 (stereo not shown) [Compound 1.025] | 5 (5=80-100%) | 5 (5=80-100%) | 5 (5=80-100%) | 5 (5=80-100%) | 5 (5=80-100%) | 5 (5=80-100%) | 5 (5=80-100%) | 5 (5=80-100%) | 5 (5=80-100%) | 5 (5=80-100%) |
| CC#Cc1cc(C)c(C2C(=O)CC3(CCC(NC(C)=O)CC3)CC2=O)c(C)c1 (stereo not shown) [Compound 2.001, N-[3-(2,6-dimethyl-4-prop-1-ynyl-phenyl)-2,4-dioxo-spiro[5.5]undecan-9-yl]acetamide] | 5 (5=80-100%) | 5 (5=80-100%) | 5 (5=80-100%) | 5 (5=80-100%) | 5 (5=80-100%) | 5 (5=80-100%) | 5 (5=80-100%) | 5 (5=80-100%) | 5 (5=80-100%) | 5 (5=80-100%) |
| CC#Cc1cc(C)c(C2C(=O)CC3(CCC(NC(C)=O)CC3)CC2=O)c(OC)c1 (stereo not shown) [Compound 2.003] | 5 (5=80-100%) | 5 (5=80-100%) | 5 (5=80-100%) | 5 (5=80-100%) | 5 (5=80-100%) | 5 (5=80-100%) | 5 (5=80-100%) | 5 (5=80-100%) | 5 (5=80-100%) | 5 (5=80-100%) |
| CC#Cc1cc(C)c(C2C(=O)CC3(CCC(NC(=O)C4CC4)CC3)CC2=O)c(C)c1 (stereo not shown) [Compound 2.004] | 5 (5=80-100%) | 5 (5=80-100%) | 5 (5=80-100%) | 5 (5=80-100%) | 5 (5=80-100%) | 5 (5=80-100%) | 5 (5=80-100%) | 5 (5=80-100%) | 5 (5=80-100%) | 5 (5=80-100%) |
| CC#Cc1cc(C)c(C2C(=O)CC3(CCC(NC(=O)C(C)(C)C)CC3)CC2=O)c(C)c1 (stereo not shown) [Compound 2.005] | 5 (5=80-100%) | 5 (5=80-100%) | 5 (5=80-100%) | 5 (5=80-100%) | 5 (5=80-100%) | 5 (5=80-100%) | 5 (5=80-100%) | 5 (5=80-100%) | 5 (5=80-100%) | 5 (5=80-100%) |
| CC#Cc1cc(C)c(C2C(=O)CC3(CCC(NC(=O)c4ccccn4)CC3)CC2=O)c(C)c1 (stereo not shown) [Compound 2.006] | 5 (5=80-100%) | 5 (5=80-100%) | 5 (5=80-100%) | 4 (4=60-79%) | 5 (5=80-100%) | 5 (5=80-100%) | 5 (5=80-100%) | 5 (5=80-100%) | 5 (5=80-100%) | 5 (5=80-100%) |
